Results on 11 compounds are retold here after ChEMBL document CHEMBL1201862, “PubChem BioAssay data set” (2004).

What all share (test): NCI anticancer screen, dose series, 48 h
For experiment [1], the system named is SN12C.
For experiment [2], the system named is MDA-N.
The subject of experiment [3] is Hs-578T.
For experiment [4], the system named is MCF7.
For experiment [5], the system named is BT-549.
Experiment [6] has as its system NCI-H522.
In experiment [7] the test system is A549.
Experiment [8] relates to SK-MEL-5.
Experiment [9] concerns K562.
Experiment [10] deals with HT-29.
The test system of experiment [11] is EKVX.
In experiment [12] the test system is OVCAR-5.
In experiment [13] the test system is M14.
The subject of experiment [14] is SW-620.
Experiment [15] deals with U-251.
Experiment [16] deals with HOP-92.
For experiment [17], the system named is T47D.
The test system of experiment [18] is A498.
In experiment [19] the test system is NCI-H226.
In experiment [20] the test system is SR.

Molecules are shown by their SMILES.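 In this assay, cells in 96-well plates receive the compound at five concentrations for 48 hours. Endpoints are linearly interpolated between the surrounding concentrations. GI50: concentration for 50% inhibition of growth.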 Active and inactive are the calls of the source. Rule as the data show it: active = GI50 up to about 1.1 µM and inactive = higher.

As to `COC(=O)C1=C(C(=O)OC)SC2(S1)C1=C(CCCC1)SC(C(=O)OC)=C2C(=O)OC`, the GI50 was 2.76 µM (inactive) in experiment [1]; 3.9 µM (inactive) in [2]; 15.9 µM (inactive) in experiment [3]; 2.61 µM (inactive) in [4]; 11.7 µM (inactive) in experiment [5]; 1.72 µM (inactive) in experiment [6]. Also, the GI50 in experiment [7] was 14.6 µM (inactive); in experiment [8] it was 10.1 µM (inactive); in [9], 1.62 µM (inactive); in [10] it was 2.84 µM (inactive); in experiment [11], 13.3 µM (inactive); in experiment [12], 12.6 µM (inactive). In addition, the GI50 is 16.9 µM (inactive) in [13]; 2.09 µM (inactive) in experiment [14]; 6.67 µM (inactive) in [15]; 7.82 µM (inactive) in experiment [16]; 2.54 µM (inactive) in experiment [17]; 6.21 µM (inactive) in [18].
Regarding `CC1(C)C=[N+]([O-])C(C)(C)N1O`, the GI50 in experiment [1], in experiment [2], in [4], in experiment [19], in [20] and in experiment [5] was > 10 µM (inactive) each time. Moreover, the GI50 in experiment [6], in experiment [7], in [9], in [10], in [11] and in [12] was > 10 µM (inactive) each time. The GI50 in experiment [13], in experiment [14], in experiment [15], in experiment [16] and in experiment [17] was > 10 µM (inactive) in each case.
With `O=[N+]([O-])c1ccc(NC(=S)N/N=C(\c2ccccc2)c2ccccn2)cc1`, the GI50 in experiment [1] is 1.48 µM (inactive); in experiment [2] it was 1.6 µM (inactive); in experiment [3], 3.3 µM (inactive); in experiment [4] it was 1.43 µM (inactive); in [19] it was 1.47 µM (inactive); in experiment [5] it was 1.63 µM (inactive). Besides, the GI50 in experiment [6] was 0.12 µM (active); in experiment [7] it was 1.82 µM (inactive); in experiment [8], 1.36 µM (inactive); in [9], < 0.01 µM (active); in experiment [11], 0.231 µM (active); in experiment [12], 1.88 µM (inactive). Also, the GI50 in [13] was 1.02 µM (active); in experiment [15] it was 1.36 µM (inactive); in experiment [16], 1.87 µM (inactive); in experiment [17], 1.45 µM (inactive); in experiment [18], 1.75 µM (inactive).
As to `O=C1CC(Br)c2c(Br)sc(Br)c21` (stereo not given), the GI50 in experiment [1] is 15.6 µM (inactive); in experiment [2], 15.5 µM (inactive); in experiment [3] it was 36.7 µM (inactive); in [4] it was 16.5 µM (inactive); in experiment [19], 29.8 µM (inactive); in [5] it was 19 µM (inactive). Moreover, the GI50 was 12.1 µM (inactive) in experiment [6]; 29.1 µM (inactive) in experiment [7]; 19.8 µM (inactive) in experiment [8]; 7.73 µM (inactive) in experiment [9]; 16.7 µM (inactive) in [10]; 19.3 µM (inactive) in experiment [11]. For the same compound, the GI50 in [12] is 17.9 µM (inactive); in experiment [13], 15.8 µM (inactive); in [14], 10.5 µM (inactive); in experiment [15], 17.3 µM (inactive); in experiment [16], 17.7 µM (inactive); in [17] it was 17.6 µM (inactive). The GI50 in experiment [18] is 91.4 µM (inactive).
Consider `O=CC1OC(=O)c2cc(O)c(O)c(O)c2-c2c(cc(O)c(O)c2O)C(=O)OC1C(O)C(O)CO` (stereo not given), for which the GI50 is 28.5 µM (inactive) in [1]; 18.7 µM (inactive) in [2]; 54 µM (inactive) in experiment [3]; 19.1 µM (inactive) in experiment [4]; > 100 µM (inactive) in [19]; 20.6 µM (inactive) in experiment [20]. Moreover, the GI50 in [5] is 51.4 µM (inactive); in experiment [6] it was 31 µM (inactive); in [7], 49.8 µM (inactive); in experiment [8], 51.6 µM (inactive); in experiment [9], 21.1 µM (inactive); in experiment [10], 22 µM (inactive). Further, the GI50 in experiment [11] was > 100 µM (inactive); in [12] it was > 100 µM (inactive); in experiment [13], 35 µM (inactive); in [14] it was 17.1 µM (inactive); in experiment [15], 17.9 µM (inactive); in experiment [16], > 100 µM (inactive). In experiment [18], the GI50 was > 100 µM (inactive).
For the compound `C=CC(O)(CBr)CCC(Br)C(=C)C` (stereo not given), the GI50 in [1], in experiment [2], in experiment [3], in [4], in [19] and in experiment [5] was > 10 µM (inactive) each time. The GI50 in experiment [6], in experiment [7], in experiment [8], in [9], in experiment [10] and in [11] was > 10 µM (inactive) throughout. Further, the GI50 in [12], in experiment [13], in experiment [14], in experiment [15], in experiment [17] and in experiment [18] was > 10 µM (inactive) each time.
Consider `Cc1ccc(S(=O)(=O)N2CCc3cc(O)c([N+](=O)[O-])cc32)cc1`, for which the GI50 in [1], in [2], in experiment [3], in experiment [4], in experiment [19] and in experiment [5] was > 100 µM (inactive) in each case. In addition, the GI50 in experiment [6], in experiment [7], in [8], in [13], in experiment [14] and in experiment [15] was > 100 µM (inactive) each time. The GI50 in experiment [17] and in experiment [18] was > 100 µM (inactive) throughout.
Regarding `NS(=O)(=O)c1ccc(CNC(=S)NC(=O)Nc2ccc(Cl)c(Cl)c2)cc1`, the GI50 in [1] was 17.3 µM (inactive); in [2], 20 µM (inactive); in [3], 17.1 µM (inactive); in [4], 19.5 µM (inactive); in experiment [5], 16.9 µM (inactive); in [6], 16 µM (inactive). Further, the GI50 in [7] was 23.6 µM (inactive); in experiment [8] it was 17.8 µM (inactive); in [9], 16.1 µM (inactive); in experiment [10], 23.2 µM (inactive); in [12], 29 µM (inactive); in experiment [13] it was 19 µM (inactive). Besides, the GI50 is 18.9 µM (inactive) in experiment [14]; 11.9 µM (inactive) in experiment [15]; 17.7 µM (inactive) in experiment [16]; 18.1 µM (inactive) in experiment [17]; 16.2 µM (inactive) in experiment [18].
Regarding `CN1CC[C@@]2(c3cccc(O)c3)CC(=O)/C(=C/c3ccccc3)[C@H]1C2.[O-][Cl+3]([O-])([O-])O`, the GI50 in experiment [1] is 7.03 µM (inactive); in experiment [2] it was 4.88 µM (inactive); in experiment [3], 3.35 µM (inactive); in [4], 2.64 µM (inactive); in experiment [19], 17.8 µM (inactive); in experiment [20] it was 2.61 µM (inactive). In addition, the GI50 in [5] is 11.8 µM (inactive); in experiment [6], 3.93 µM (inactive); in [7] it was 15 µM (inactive); in experiment [8], 17.8 µM (inactive); in [9] it was 2.58 µM (inactive); in [10], 3.18 µM (inactive). Moreover, the GI50 in [11] is 14.9 µM (inactive); in [12], 14.3 µM (inactive); in experiment [13], 10.5 µM (inactive); in experiment [14], 2.54 µM (inactive); in experiment [15] it was 2.59 µM (inactive); in [16], 14.9 µM (inactive). Moreover, in experiment [18], the GI50 is 9.31 µM (inactive).
As to `N#CC(c1ccccc1)N(CCOCCOCCN(C(=O)c1ccccc1)C(C#N)c1ccccc1)C(=O)c1ccccc1` (stereo not given), the GI50 was 93.3 µM (inactive) in [1]; > 100 µM (inactive) in [2]; > 100 µM (inactive) in experiment [3]; > 100 µM (inactive) in experiment [4]; > 100 µM (inactive) in [19]; > 100 µM (inactive) in [5]. Moreover, the GI50 in experiment [7] is 98.9 µM (inactive); in experiment [8], 34.9 µM (inactive); in experiment [9], 56.6 µM (inactive); in experiment [10], > 100 µM (inactive); in experiment [11] it was > 100 µM (inactive); in [12], > 100 µM (inactive). For the same compound, the GI50 in [13] is > 100 µM (inactive); in experiment [14] it was > 100 µM (inactive); in [15] it was > 100 µM (inactive); in experiment [16] it was 43.8 µM (inactive); in experiment [17], 7.08 µM (inactive); in experiment [18] it was > 100 µM (inactive).
As to `CN(C)c1nc2n(CCO)ccnc-2c(=O)n1`, the GI50 in [1], in [2], in experiment [3], in [19], in experiment [20] and in experiment [5] was > 100 µM (inactive) in each case. The GI50 in [6], in [7], in experiment [8], in experiment [9], in [10] and in experiment [11] was > 100 µM (inactive) each time. Further, the GI50 in [12], in experiment [13], in experiment [14], in experiment [15], in experiment [16] and in [17] was > 100 µM (inactive) in each case. In addition, the GI50 in [18] is > 100 µM (inactive).
